Laboratory results taken from patent publication US8822754B2, “Ecdysone receptor-based inducible gene expression system” (Intrexon Corporation, priority 2000, dated 2014).

How the values were obtained:
GAL4CfEcRVP16 = test: Transactivation of reporter genes through switch 1.6 in 3T3 cells; assay type: cell-based, Choristoneura fumiferana; conditions: switch 1.6 GAL4CfEcRVP16, pGAL4RELuc
Procedure: This construct was prepared so that both the GAL4 DNABD and the VP16AD were placed on the same molecule. GAL4DNABD (SEQ ID NO: 41) and VP16AD (SEQ ID NO: 45) were fused to CfEcRDEF (SEQ ID NO: 3) at N- and C-termini respectively.
(§1) The cells were plated when they reached 50% confluency.
(§2) Cells were harvested 24-48 hr after adding ligands. […] Twenty μl of lysate was assayed.

GAL4EcR + VP16USP [1] = test: Transactivation of reporter genes through switch 1.2 in 293 cells; assay type: cell-based, Choristoneura fumiferana; conditions: switch 1.2 GAL4EcR + VP16USP, pGAL4RELuc
Procedure: (§3) This construct was prepared in the same way as in switch 1.1 above except MmRXRDEF was replaced with the D, E and F domains from spruce budworm USP (“CfUSPDEF”; SEQ ID NO: 58). The constructs used in this example are similar to those disclosed in U.S. Pat. No. 5,880,333 except that Choristoneura fumiferana USP rather than Drosophila melanogaster USP was utilized.
(§4) The same procedures described for CHO were followed for 293 cells except that the cells were plated in biocoated plates to avoid clumping.
as §2

DmVgRXR + MmRXR = biological target: T1, DmVgRXR + MmRXR (Drosophila melanogaster, UniProt P34021, E282G/G283S/G286V); test: Transactivation of reporter genes through switch 1.8 in 293 cells; assay type: cell-based; conditions: switch 1.8 DmVgRXR + MmRXR, pIND(SP1)LacZ
T1 construct: host or cells: CHO, NIH3T3, 293 or CV1 cells (one cell line per assay)
T1 sequence (P34021 whole entry E282G/G283S/G286V): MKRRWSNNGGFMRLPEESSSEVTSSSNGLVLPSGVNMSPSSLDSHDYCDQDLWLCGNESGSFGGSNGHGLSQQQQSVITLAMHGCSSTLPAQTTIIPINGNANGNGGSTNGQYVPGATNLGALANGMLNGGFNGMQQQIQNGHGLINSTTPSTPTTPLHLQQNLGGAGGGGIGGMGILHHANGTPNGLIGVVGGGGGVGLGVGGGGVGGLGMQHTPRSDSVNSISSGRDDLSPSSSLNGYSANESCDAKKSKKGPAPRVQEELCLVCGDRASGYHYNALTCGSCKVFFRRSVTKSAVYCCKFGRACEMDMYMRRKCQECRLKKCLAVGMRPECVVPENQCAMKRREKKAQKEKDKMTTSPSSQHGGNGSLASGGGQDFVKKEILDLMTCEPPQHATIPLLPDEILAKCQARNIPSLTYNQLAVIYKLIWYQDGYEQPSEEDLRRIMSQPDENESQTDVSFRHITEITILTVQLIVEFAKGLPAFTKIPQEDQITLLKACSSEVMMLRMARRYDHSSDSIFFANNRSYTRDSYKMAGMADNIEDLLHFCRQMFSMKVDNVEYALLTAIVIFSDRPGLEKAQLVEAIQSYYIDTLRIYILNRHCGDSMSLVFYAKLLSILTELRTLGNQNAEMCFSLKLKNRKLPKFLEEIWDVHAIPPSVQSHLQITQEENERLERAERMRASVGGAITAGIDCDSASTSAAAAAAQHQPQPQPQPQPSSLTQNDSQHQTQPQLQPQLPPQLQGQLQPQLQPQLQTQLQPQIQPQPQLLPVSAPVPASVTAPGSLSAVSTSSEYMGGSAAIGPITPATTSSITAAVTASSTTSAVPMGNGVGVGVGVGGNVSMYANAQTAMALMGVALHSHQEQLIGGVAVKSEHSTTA
T1 sequence (P28700 whole entry, further chain): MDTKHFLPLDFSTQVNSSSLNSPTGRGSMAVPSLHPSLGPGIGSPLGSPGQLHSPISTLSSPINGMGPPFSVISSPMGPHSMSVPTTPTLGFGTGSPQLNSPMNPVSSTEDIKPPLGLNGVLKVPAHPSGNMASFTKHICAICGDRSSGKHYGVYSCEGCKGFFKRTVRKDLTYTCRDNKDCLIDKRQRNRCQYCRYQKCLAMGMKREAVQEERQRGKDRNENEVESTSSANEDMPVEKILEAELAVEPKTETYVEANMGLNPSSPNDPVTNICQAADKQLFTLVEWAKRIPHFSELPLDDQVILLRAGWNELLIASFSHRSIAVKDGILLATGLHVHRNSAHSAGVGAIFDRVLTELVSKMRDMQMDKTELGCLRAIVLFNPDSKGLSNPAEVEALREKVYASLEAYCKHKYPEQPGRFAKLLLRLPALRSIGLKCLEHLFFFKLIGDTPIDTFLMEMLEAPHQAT
Excerpt: This system was purchased from Invitrogen Corp., Carlsbad, Calif. It comprises a Drosophila melanogaster EcR (“DmEcR”) with a modified DNABD fused to VP16AD and placed under the control of a CMV promoter (SEQ ID NO: 60). Full length MmRXR (SEQ ID NO: 53) was placed under the control of the RSV promoter (SEQ ID NO: 61). The reporter, pIND(SP1)LacZ, contains five copies of a modified ecdysone response element (“EcRE”, E/GRE), three copies of an SP1 enhancer, and a minimal heat shock promoter, all of which were placed upstream to the LacZ reporter gene.
as §4, §2

GAL4RXR + VP16DmEcR [2] = biological target: T2, GAL4RXR + VP16DmEcR (Drosophila melanogaster, UniProt P34021); test: Transactivation of reporter genes through switch 1.4 in 3T3 cells; assay type: cell-based; conditions: switch 1.4 GAL4RXR + VP16DmEcR, pGAL4RELuc
T2 sequence (P34021 254-878): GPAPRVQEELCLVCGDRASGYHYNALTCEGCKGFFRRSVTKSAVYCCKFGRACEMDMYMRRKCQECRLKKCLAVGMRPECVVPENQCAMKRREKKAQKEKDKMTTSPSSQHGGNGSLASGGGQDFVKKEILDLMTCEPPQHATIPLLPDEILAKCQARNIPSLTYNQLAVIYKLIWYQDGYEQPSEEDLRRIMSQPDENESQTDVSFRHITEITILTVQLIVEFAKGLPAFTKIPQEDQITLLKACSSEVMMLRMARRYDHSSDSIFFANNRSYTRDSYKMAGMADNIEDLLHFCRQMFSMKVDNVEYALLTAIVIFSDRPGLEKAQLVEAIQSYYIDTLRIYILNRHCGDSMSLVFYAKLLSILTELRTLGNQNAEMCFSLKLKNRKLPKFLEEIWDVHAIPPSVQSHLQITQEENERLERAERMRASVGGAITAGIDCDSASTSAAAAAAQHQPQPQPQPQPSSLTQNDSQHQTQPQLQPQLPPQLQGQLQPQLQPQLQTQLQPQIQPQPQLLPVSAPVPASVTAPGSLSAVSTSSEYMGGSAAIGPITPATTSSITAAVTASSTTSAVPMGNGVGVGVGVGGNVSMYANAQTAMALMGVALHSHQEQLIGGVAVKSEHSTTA
T2 sequence (P28700 206-467 partner limits assumed): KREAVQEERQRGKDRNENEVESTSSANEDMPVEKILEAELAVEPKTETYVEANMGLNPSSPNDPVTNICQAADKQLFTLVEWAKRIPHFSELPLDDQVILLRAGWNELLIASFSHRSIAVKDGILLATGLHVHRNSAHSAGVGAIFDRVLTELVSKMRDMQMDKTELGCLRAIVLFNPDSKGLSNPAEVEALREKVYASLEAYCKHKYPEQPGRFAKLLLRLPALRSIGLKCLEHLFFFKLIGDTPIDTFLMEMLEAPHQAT
Procedure: (§5) This construct was prepared in the same way as switch 1.3 except CfEcRCDEF was replaced with DmEcRCDEF (SEQ ID NO: 6).
as §1, §2

GAL4RXR + VP16DmEcR [3] = biological target: T2, GAL4RXR + VP16DmEcR; test: Transactivation of reporter genes through switch 1.4 in CV1 cells; assay type: cell-based; parameters: expressed in transfected cells; host or cells: CV1 cells (transient co-transfection); conditions: switch 1.4 GAL4RXR + VP16DmEcR, pGAL4RELuc
Procedure: as §5
(§6) The same procedures described for NIH3T3 cells were followed for CV1 cells
as §2

CfEcR = test: Comparison of switches in the mammalian cell lines tested (Tables 1-4); assay type: cell-based, Choristoneura fumiferana; conditions: see Tables 1-4
Procedure: Several commercially available lipofactors as well as electroporation methods were evaluated and the best conditions for transfection of each cell line were developed. CHO, NIH3T3, 293 and CV1 cells were grown to 60% confluency. DNAs corresponding, to the various switch constructs outlined in Examples 1.1 through 1.10 were transfected into CHO cells, NIH3T3 cells, 293 cells, or CV1 cells as follows.
as §2

VP16CfEcR = test: Transactivation of reporter genes through switch 1.7 in CV1 cells; assay type: cell-based, Choristoneura fumiferana; conditions: switch 1.7 VP16CfEcR, pEcRELuc
Procedure: Six ecdysone response elements (“EcRE”; SEQ ID NO: 59) from the hsp27 gene were placed upstream of the promoter and a luciferase gene (SEQ ID NO: 57). This switch most probably uses endogenous RXR.
as §6, §2

GAL4EcR + VP16USP [4] = test: Transactivation of reporter genes through switch 1.2 in CV1 cells; assay type: cell-based, Choristoneura fumiferana; conditions: switch 1.2 GAL4EcR + VP16USP, pGAL4RELuc
Procedure: as §3, §6, §2

CCc1c(OC)cccc1C(=O)NN(C(=O)c1cc(C)cc(C)c1)C(C)(C)C [N-(2-ethyl-3-methoxybenzoyl)-N′-(3,5-dimethylbenzoyl)-N′-tert-butylhydrazine]
Mean Fold Activation Through N-(2-ethyl-3-methoxybenzoyl)-N′-(3,5-dimethylbenzoyl)-N′-t-butylhydrazine (GAL4CfEcRVP16): 7 fold | Mean Fold Activation Through N-(2-ethyl-3-methoxybenzoyl)-N′-(3,5-dimethylbenzoyl)-N′-t-butylhydrazine (GAL4EcR + VP16USP [1]): 2 fold | Mean Fold Activation Through N-(2-ethyl-3-methoxybenzoyl)-N′-(3,5-dimethylbenzoyl)-N′-t-butylhydrazine (DmVgRXR + MmRXR): 21 fold | Mean Fold Activation Through N-(2-ethyl-3-methoxybenzoyl)-N′-(3,5-dimethylbenzoyl)-N′-t-butylhydrazine (GAL4RXR + VP16DmEcR [2]): 269 fold | Mean Fold Activation Through N-(2-ethyl-3-methoxybenzoyl)-N′-(3,5-dimethylbenzoyl)-N′-t-butylhydrazine (GAL4RXR + VP16DmEcR [3]): 80 fold | potency as activators of CfEcR as compared to DmEcR (CfEcR): more potent activators of CfEcR | Mean Fold Activation Through N-(2-ethyl-3-methoxybenzoyl)-N′-(3,5-dimethylbenzoyl)-N′-t-butylhydrazine (VP16CfEcR): 1 fold | Mean Fold Activation Through N-(2-ethyl-3-methoxybenzoyl)-N′-(3,5-dimethylbenzoyl)-N′-t-butylhydrazine (GAL4EcR + VP16USP [4]): 2 fold
